Reference: patent publication US20240261274A1, “TREATMENT OF MYC-DRIVEN CANCERS WITH GSPT1 DEGRADERS” (MONTE ROSA THERAPEUTICS, INC., priority 2021, published 2024)

Assays:
Format in all cases: cell-based
Settings in all cases: MM1 S cells, 0.3, 3 and 30 μM, 6 hours
[1] = target: T1, IKZF1 (Homo sapiens, UniProt Q13422+Q96SW2); assay: Selectivity western blot assay in MM1 S cells, IKZF1; parameters: key: A represents no degradation observed at 30 μM; B represents trace degradation at 30 μM (below 20%); C represents weak degradation at 30 μM (below 50%); D represents degradation at 30 μM (>90%); E represents degradation at 3 μM (>90%); F represents degradation at 0.3 μM (>90%)
T1 construct: endogenous in cells; host or cells: MM1 S (ATCC CRL-2974)
T1 sequence (Q13422 whole entry): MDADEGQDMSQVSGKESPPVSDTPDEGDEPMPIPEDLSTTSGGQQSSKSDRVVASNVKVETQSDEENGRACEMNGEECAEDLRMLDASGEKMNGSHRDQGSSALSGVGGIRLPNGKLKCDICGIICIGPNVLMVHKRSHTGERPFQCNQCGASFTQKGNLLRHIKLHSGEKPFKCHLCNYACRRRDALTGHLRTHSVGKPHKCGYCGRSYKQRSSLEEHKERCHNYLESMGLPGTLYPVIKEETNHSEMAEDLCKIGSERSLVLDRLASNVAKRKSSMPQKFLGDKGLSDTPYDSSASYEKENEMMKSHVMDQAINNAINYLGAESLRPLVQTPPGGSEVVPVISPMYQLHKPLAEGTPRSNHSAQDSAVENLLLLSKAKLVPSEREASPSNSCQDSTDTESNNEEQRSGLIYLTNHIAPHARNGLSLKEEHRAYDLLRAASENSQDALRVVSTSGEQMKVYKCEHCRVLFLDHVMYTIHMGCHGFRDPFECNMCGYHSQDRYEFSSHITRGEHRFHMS
T1 sequence (Q96SW2 whole entry): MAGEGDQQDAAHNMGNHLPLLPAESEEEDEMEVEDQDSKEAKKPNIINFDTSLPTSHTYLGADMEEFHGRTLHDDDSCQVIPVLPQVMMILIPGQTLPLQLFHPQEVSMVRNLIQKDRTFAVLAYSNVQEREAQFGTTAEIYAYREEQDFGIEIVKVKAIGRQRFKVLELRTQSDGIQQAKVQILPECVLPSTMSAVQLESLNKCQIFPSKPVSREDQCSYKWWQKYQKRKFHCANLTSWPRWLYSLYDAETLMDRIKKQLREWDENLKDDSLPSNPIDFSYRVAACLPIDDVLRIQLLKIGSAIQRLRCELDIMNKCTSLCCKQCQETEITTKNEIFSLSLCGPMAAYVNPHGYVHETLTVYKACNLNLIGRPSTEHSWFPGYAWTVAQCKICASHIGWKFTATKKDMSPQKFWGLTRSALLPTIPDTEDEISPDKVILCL
T1 sequence (Q16531 whole entry partner): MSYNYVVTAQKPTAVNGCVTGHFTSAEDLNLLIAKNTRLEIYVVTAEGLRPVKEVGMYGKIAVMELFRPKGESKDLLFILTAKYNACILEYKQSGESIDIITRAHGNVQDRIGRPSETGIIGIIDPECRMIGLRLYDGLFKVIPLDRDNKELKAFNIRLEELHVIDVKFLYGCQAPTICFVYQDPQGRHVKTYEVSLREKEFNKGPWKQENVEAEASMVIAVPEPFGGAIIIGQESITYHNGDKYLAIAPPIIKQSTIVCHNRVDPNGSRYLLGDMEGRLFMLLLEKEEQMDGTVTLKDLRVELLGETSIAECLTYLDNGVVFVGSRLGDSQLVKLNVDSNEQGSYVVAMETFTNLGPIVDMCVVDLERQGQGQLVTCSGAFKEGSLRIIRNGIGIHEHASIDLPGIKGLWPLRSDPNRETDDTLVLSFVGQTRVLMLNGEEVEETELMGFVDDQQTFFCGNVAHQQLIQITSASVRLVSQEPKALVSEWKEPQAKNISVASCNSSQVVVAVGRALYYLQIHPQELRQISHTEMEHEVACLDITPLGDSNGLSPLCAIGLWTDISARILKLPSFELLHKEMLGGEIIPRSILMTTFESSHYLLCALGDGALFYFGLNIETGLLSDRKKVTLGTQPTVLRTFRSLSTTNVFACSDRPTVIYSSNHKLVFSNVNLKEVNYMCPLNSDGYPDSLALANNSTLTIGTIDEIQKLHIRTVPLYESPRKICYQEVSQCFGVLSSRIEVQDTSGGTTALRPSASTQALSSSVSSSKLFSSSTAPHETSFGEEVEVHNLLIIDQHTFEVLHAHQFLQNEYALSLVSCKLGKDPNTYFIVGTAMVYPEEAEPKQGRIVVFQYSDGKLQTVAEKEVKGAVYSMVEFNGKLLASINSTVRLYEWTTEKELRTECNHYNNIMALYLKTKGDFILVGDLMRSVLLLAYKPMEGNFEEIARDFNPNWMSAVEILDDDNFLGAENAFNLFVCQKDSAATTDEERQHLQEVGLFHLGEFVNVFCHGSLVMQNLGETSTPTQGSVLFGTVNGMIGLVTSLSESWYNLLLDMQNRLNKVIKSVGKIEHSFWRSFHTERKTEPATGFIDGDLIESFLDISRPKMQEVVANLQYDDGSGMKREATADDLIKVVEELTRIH
Description: (§1) MM1 S cells were purchased from ATCC (cat. Number CRL-2974), sub-cultured in 90% RPMI 1640 with 10% FBS, supplemented with 1×P/S and incubated at 37° C., 5% CO2. Compounds were stored as 10 mM DMSO stock. For the assay, MM1 S cells (3 million cells/well) were plated in 6-well plates and incubated over night. Cells were treated with respective compounds using a serial dilution: 0.3 μM, 3 μM and 30 μM as well as a vehicle only (DMSO) control for 6 hours. Media with suspension cells was subsequently transferred to 15 mL conical tubes, wells rinsed twice with ice-cold PBS and merged with cell suspension in respective 15 mL conical tube. Cells were spinned down, supernatant aspirated, pellets resuspended in ice-cold PBS and transferred to microtubes. Cells were spinned down, supernatant aspirated and pellets resuspended in 120 μL RIPA lysis buffer supplemented with protease and phosphatase inhibitors. Cell lysates were incubated on ice for 20 minutes followed by centrifugation at >20,000×g for 5 min. Supernatants were transferred to fresh microtubes and stored at −80° C. Total protein concentration was determined using a BCA assay with a BSA standard curve and concentration of all samples was adjusted to 1 mg/mL. 25 μL 4×LDS sample buffer supplemented with 100 mM DTT was added to 75 μL sample. Samples were centrifuged (8,000×g, 1 min) and incubated at 95° C. for 5 min followed by another centrifugation step (8,000×g, 1 min). 20 μL of each sample was loaded on a 4-12% gel alongside a protein molecular weight marker. Gels were run in the presence of MOPS buffer at 80 Volts for 30 min, followed by 120 Volts for 1.5 h and proteins subsequently transferred onto nitrocellulose membranes at 20 Volts for 7 min using an iBlot2 Gel Transfer Device. Membranes were then cut horizontally into two pieces, covering 80-50 kDa and 50-25 kDa. Blocking the membranes was performed by gently shaking in 5% (w/v) skim milk in TSB-T for 1 hr at room temperature. All primary antibodies were used at a 1/1000 in 5% (w/v) BSA dissolved in TBST and incubated with membranes over night at 4° C. After three washes with 1×TBST for 5 min, HRP-coupled secondary antibodies diluted in 5% (w/v) BSA/TBST (Goat Anti-Rb IgG, dil. 1/10,000; Goat Anti-Mouse IgG, dil. 1/5000) were added for 1 hr at room temperature. After three washes with 1×TBST (5 minutes each), membranes were incubated with ECL reagent for 1 min at room temperature. Chemiluminescence signals were then detected using a LAS-4000 system with default settings and signals quantified using Image Studio Lite software (version 5.2). Membrane parts previously incubated with antibody against CK1 alpha were stripped off antibodies by incubating with stripping buffer for 30 minutes followed by three washed with TBST (5 min each), blocking with 5% (w/v) skim milk for 1 hr, and incubation with primary antibody against uGAPDH overnight at 4° C. Subsequent washes, incubation with secondary antibody and signal acquisition were performed as described above.

[2] = target: T2, CK1alpha (Homo sapiens, UniProt P48729+Q96SW2); assay: Selectivity western blot assay in MM1 S cells, CK1alpha; parameters: key: A represents no degradation observed at 30 μM; B represents trace degradation at 30 μM (below 20%); C represents weak degradation at 30 μM (below 50%); D represents degradation at 30 μM (>90%); E represents degradation at 3 μM (>90%); F represents degradation at 0.3 μM (>90%)
T2 construct: endogenous in cells; host or cells: MM1 S (ATCC CRL-2974)
T2 sequence (P48729 whole entry): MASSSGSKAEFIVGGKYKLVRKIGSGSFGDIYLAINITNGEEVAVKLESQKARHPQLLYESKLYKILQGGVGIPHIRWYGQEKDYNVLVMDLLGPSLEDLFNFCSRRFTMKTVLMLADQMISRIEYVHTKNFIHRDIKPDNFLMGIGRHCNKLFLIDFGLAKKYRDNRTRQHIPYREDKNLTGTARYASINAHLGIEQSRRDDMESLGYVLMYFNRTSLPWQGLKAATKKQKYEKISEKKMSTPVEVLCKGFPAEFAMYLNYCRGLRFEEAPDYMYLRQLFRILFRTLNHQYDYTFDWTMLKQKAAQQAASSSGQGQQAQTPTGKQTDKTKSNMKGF
T2 sequence (Q96SW2 whole entry): as the sequence (Q96SW2 whole entry) above
T2 sequence (Q16531 whole entry partner): as the sequence (Q16531 whole entry partner) above
Description: as §1

[3] = target: GSPT1 (Homo sapiens, UniProt P15170+Q96SW2); assay: Selectivity western blot assay in MM1 S cells, GSPT1; parameters: endogenous in cells; host or cells: MM1 S (ATCC CRL-2974)
Sequence of GSPT1 (P15170 whole entry): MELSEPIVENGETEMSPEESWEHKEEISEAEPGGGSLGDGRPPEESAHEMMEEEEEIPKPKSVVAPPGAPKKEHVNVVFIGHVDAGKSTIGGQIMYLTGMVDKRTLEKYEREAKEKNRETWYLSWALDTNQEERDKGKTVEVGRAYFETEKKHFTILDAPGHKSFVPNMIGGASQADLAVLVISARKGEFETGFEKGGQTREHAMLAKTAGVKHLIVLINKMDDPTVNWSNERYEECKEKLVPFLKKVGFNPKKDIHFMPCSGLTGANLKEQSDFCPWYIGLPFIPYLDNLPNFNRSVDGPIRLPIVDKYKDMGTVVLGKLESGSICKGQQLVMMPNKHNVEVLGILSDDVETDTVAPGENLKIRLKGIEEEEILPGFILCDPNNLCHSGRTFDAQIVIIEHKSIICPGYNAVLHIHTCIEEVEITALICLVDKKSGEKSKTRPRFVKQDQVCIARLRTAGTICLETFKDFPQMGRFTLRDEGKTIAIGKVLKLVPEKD
Sequence of GSPT1 (Q96SW2 whole entry): as the sequence (Q96SW2 whole entry) above
Sequence of GSPT1 (Q16531 whole entry partner): as the sequence (Q16531 whole entry partner) above
Description: as §1

[4] = target: T3, IKZF3 (Homo sapiens, UniProt Q96SW2+Q9UKT9); assay: Selectivity western blot assay in MM1 S cells, IKZF3
T3 construct: endogenous in cells; host or cells: MM1 S (ATCC CRL-2974)
T3 sequence (Q9UKT9 whole entry): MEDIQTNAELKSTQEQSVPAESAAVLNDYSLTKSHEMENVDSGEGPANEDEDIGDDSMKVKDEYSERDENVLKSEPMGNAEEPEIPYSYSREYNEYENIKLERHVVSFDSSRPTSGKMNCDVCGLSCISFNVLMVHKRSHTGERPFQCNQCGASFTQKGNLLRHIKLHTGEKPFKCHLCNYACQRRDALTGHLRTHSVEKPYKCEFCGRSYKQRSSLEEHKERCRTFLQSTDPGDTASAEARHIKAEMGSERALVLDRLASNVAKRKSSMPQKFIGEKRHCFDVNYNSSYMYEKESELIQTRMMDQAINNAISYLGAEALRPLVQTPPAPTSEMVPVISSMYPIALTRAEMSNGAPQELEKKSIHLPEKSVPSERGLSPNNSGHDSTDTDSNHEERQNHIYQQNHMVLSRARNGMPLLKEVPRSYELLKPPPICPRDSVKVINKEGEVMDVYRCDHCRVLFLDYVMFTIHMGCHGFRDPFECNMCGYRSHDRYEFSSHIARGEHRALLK
T3 sequence (Q96SW2 whole entry): as the sequence (Q96SW2 whole entry) above
T3 sequence (Q16531 whole entry partner): as the sequence (Q16531 whole entry partner) above
Description: as §1

| Compound | IKZF1 degradation [1] | CK1alpha degradation [2] | GSPT1 degradation [3] | IKZF3 degradation [4] |
| --- | --- | --- | --- | --- |
| Cc1ccc(NC(=O)NCc2ccc3c(c2)C(=O)N(C2CCC(=O)NC2=O)C3)cc1Cl (stereo not drawn) [Compound 8] | A | A | F (F represents degradation at 0.3 μM (>90%)) | B (B represents trace degradation at 30 μM (below 20%)) |
| Cc1c(Cl)cc(NC(=O)NCc2ccc3c(c2)C(=O)N(C2CCC(=O)NC2=O)C3)cc1CN1C2CCC1COC2 (stereo not drawn) [Compound 138] | C (C represents weak degradation at 30 μM (below 50%)) | A | F (F represents degradation at 0.3 μM (>90%)) | B (B represents trace degradation at 30 μM (below 20%)) |
| Cc1ccc(NC(=O)OCc2ccc3c(c2)C(=O)N(C2CCC(=O)NC2=O)C3)cc1Cl (stereo not drawn) [Compound 210] | A | B (B represents trace degradation at 30 μM (below 20%)) | D (D represents degradation at 30 μM (>90%)) | B (B represents trace degradation at 30 μM (below 20%)) |
